Reference: article PMC5769128, “Human UDP-Glucuronosyltransferase 2B4 and 2B7 Are Responsible for Naftopidil Glucuronidation in Vitro” (Frontiers in Pharmacology, 2018)

Experiments:
[1] = tested on: UGT1A1, 1A4, 1A3, 2B17, 1A8, 2B15, and 1A7; experiment: UGT reaction screening of R(+)-NAF, minor isoforms; type: in vitro ADME, human; conditions: 10 μM substrate, 45 min
recombinant human UGT2B4 = biological target: T1, recombinant human UGT2B4 (Homo sapiens, UniProt P06133); experiment: UGT reaction screening of NAF enantiomers, UGT2B4; type: in vitro ADME; conditions: 10 μM substrate, 45 min
T1 construct: purchased BD Gentest
T1 sequence (P06133 24-528): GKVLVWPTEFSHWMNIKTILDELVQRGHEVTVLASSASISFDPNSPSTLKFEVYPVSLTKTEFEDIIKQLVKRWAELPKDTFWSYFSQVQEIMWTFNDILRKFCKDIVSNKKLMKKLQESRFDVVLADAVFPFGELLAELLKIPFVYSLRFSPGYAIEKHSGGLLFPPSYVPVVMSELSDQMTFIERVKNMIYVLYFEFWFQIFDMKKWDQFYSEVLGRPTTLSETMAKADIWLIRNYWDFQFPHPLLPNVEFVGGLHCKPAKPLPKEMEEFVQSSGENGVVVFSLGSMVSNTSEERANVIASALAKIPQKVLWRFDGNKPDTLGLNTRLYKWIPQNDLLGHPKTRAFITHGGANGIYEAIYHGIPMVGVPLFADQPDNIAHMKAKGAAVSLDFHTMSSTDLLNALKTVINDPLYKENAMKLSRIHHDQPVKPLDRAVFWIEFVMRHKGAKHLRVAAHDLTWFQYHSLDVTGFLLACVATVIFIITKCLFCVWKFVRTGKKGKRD

Glucuronidation activity of UGT2B4 compared with UGT2B7 (recombinant human UGT2B4) | SMILES | Glucuronidation activity, times lower than UGT2B7 [1]
 | COc1ccccc1N1CCN(C[C@@H](O)COc2cccc3ccccc23)CC1 [R(+)-NAF] | more than 10 times
relatively higher activity than UGT2B7 | COc1ccccc1N1CCN(C[C@H](O)COc2cccc3ccccc23)CC1 [S(-)-NAF] | 
